Bounds are passed on as bounds.

One test concerns 6-OHDA lesioned rats. Kind of test: Rotational experiment with 6-OHDA lesioned rats. The test is classed as in vivo, rat.
The target in another test is dopamine rD3 receptor (Rattus norvegicus, UniProt P19020). The conditions noted are these: ratio of Ki D2L to Ki D3.
The next test has as its target dopamine hD3 receptor (Homo sapiens, UniProt P35462). Kind of test: Stimulation of [35S]GTPγS binding, hD3 receptors expressed in CHO cells. The test is classed as biochemical. The note with it: read-out: %Emax, CHO-D3.

Sequence of dopamine rD3 receptor (P19020 whole entry): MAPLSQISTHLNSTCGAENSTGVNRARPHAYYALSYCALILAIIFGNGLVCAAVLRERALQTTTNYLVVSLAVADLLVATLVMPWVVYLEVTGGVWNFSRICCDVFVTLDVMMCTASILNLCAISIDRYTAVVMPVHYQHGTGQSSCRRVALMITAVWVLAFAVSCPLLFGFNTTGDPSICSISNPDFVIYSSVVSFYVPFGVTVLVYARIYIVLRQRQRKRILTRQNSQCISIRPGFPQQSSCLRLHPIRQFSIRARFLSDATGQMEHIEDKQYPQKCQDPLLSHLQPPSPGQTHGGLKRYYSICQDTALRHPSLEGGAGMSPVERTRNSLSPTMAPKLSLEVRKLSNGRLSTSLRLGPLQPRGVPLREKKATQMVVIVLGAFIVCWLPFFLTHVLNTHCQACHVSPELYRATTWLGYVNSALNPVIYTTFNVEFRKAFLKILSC
Sequence of dopamine hD3 receptor (P35462 whole entry): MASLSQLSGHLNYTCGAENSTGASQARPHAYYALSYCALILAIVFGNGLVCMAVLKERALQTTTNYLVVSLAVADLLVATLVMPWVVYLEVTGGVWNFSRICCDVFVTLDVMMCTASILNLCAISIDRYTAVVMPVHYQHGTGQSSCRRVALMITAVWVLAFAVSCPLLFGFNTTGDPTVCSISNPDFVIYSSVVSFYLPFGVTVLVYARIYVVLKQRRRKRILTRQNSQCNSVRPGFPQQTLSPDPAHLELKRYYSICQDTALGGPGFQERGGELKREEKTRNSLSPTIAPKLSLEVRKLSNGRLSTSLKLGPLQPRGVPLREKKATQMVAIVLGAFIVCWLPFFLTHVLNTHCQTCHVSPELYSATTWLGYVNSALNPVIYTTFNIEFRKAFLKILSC

Consider `CN1CCc2cccc3c2[C@H]1Cc1ccc(O)c(O)c1-3` [apomorphine], for which, in the test with 6-OHDA lesioned rats (0.05 mg/kg, 21 days post lesion, recorded for 30 min, four rats), the “average rotation (contralateral)” value is recorded as above 250. For `CCCN(CCN1CCN(Cc2ccc(O)c3ncccc23)CC1)C1CCc2c(O)cccc2C1` (centres unmarked) [Compound 12b, 5-((4-(2-((5-hydroxy-1,2,3,4-tetrahydronaphthalen-2-yl)(propyl)amino)ethyl)piperazin-1-yl)methyl)quinolin-8-ol], the D2L/D3 on dopamine rD3 receptor is recorded as 11.2. As to `CCCN(CCC)CCc1cccc2c1CC(=O)N2` [Ropinirole], the maximal effect (Emax) at dopamine hD3 receptor is 66.6 ± 8.1%. Moreover, the rotational activity entry with 6-OHDA lesioned rats (5 µMol/kg) is on record as “much less rotations with shorter duration of action”. For the compound `CCCN(CCN1CCN(Cc2ccc(O)c3ncccc23)CC1)C1CCc2ccc(O)cc2C1` (centres unmarked) [Compound 12a, 5-((4-(2-((7-hydroxy-1,2,3,4-tetrahydronaphthalen-2-yl)(propyl)amino)ethyl)piperazin-1-yl)methyl) quinolin-8-ol], on dopamine rD3 receptor, the D2L/D3 turned out to be 15.4.

The values are drawn from article PMC2844127 (Journal of medicinal chemistry, 2010).
